# According to ChEMBL document CHEMBL1697781, “Assessment of the health effects of chemicals in humans: II. Construction of an adverse effects database for QSAR modeling” (Curr Drug Discov Technol, 2004):
# Legend:
# Conditions in all cases: human; call rule not given here
# Hepatotoxicity [1] = assay: FDA HLAED, lactate dehydrogenase (LDH) increase
# Hepatotoxicity [2] = assay: FDA HLAED, gamma-glutamyl transferase (GGT) increase
# Hepatotoxicity [3] = assay: FDA HLAED, liver enzyme composite activity
# Hepatotoxicity [4] = assay: FDA HLAED, serum glutamic oxaloacetic transaminase (SGOT) increase
# Hepatotoxicity [5] = assay: FDA HLAED, serum glutamic pyruvic transaminase (SGPT) increase
# Hepatotoxicity [6] = assay: FDA HLAED, alkaline phosphatase increase
# Wherever GGT Increase - Index Value is given: reference of the scale not given here.
# Wherever LDH Increase - Index Value is given: reference of the scale not given here.
Structure (SMILES),LDH Increase - Activity Score (Hepatotoxicity [1]),LDH Increase - Index Value (Hepatotoxicity [1]),LDH Increase - Number of Reports (Hepatotoxicity [1]),GGT Increase - Activity Score (Hepatotoxicity [2]),GGT Increase - Index Value (Hepatotoxicity [2]),GGT Increase - Number of Reports (Hepatotoxicity [2]),Composite Activity - Active (Hepatotoxicity [3]),Composite Activity - Marginal (Hepatotoxicity [3]),Composite Activity - Score (Hepatotoxicity [3]),SGOT Increase - Activity Score (Hepatotoxicity [4]),SGOT Increase - Index Value (Hepatotoxicity [4]),SGOT Increase - Number of Reports (Hepatotoxicity [4]),SGPT Increase - Activity Score (Hepatotoxicity [5]),SGPT Increase - Index Value (Hepatotoxicity [5]),SGPT Increase - Number of Reports (Hepatotoxicity [5]),Alkaline Phosphatase Increase - Activity Score (Hepatotoxicity [6]),Alkaline Phosphatase Increase - Index Value (Hepatotoxicity [6]),Alkaline Phosphatase Increase - Number of Reports (Hepatotoxicity [6]),further results
Cc1nnc2n1-c1ccc(Cl)cc1C(c1ccccc1)=NC2 [ALPRAZOLAM],Inactive,0.5,>= 4,Inactive,0,< 4,0,0,Inactive,Inactive,0.7,>= 4,Inactive,0.9,>= 4,Inactive,0.4,>= 4,–
CCCCC[C@H](O)/C=C/[C@H]1[C@H](O)CC(=O)[C@@H]1CCCCCCC(=O)O [ALPROSTADIL],Inactive,0,< 4,Inactive,0,< 4,0,0,Inactive,Inactive,0,< 4,Inactive,0,< 4,Inactive,0,< 4,–
CN(C)c1nc(N(C)C)nc(N(C)C)n1 [ALTRETAMINE],Inactive,0,< 4,Inactive,0,< 4,0,0,Inactive,Inactive,0,< 4,Inactive,0,< 4,Inactive,18.3,< 4,–
CC(=O)OCC(=O)[C@@]12OC3(CCCC3)O[C@@H]1C[C@H]1[C@@H]3CCC4=CC(=O)C=C[C@]4(C)[C@@]3(F)[C@@H](O)C[C@@]12C [AMCINONIDE],Inactive,0,< 4,Inactive,0,< 4,0,0,Inactive,Inactive,0,< 4,Inactive,0,< 4,Inactive,0,< 4,–
NCCCNCCSP(=O)(O)O [AMIFOSTINE],Inactive,41.5,< 4,Inactive,0,< 4,–,–,–,Inactive,0,< 4,Inactive,0,< 4,Inactive,0,< 4,Composite Activity - Active (Hepatotoxicity [3]; Liver): 0; Composite Activity - Marginal (Hepatotoxicity [3]; Liver): 0; Composite Activity - Score (Hepatotoxicity [3]; Liver): Inactive
CCC1(c2ccc(N)cc2)CCC(=O)NC1=O (stereo unspecified) [AMINOGLUTETHIMIDE],Inactive,0,< 4,Inactive,0,< 4,0,0,Inactive,Inactive,0,< 4,Inactive,0,< 4,Inactive,0,< 4,–
CCCCc1oc2ccccc2c1C(=O)c1cc(I)c(OCCN(CC)CC)c(I)c1 [AMIODARONE],Inactive,0,< 4,Inactive,0,< 4,–,–,–,Inactive,0,< 4,Inactive,0,< 4,Inactive,0,< 4,Composite Activity - Active (Hepatotoxicity [3]; Liver): 0; Composite Activity - Marginal (Hepatotoxicity [3]; Liver): 0; Composite Activity - Score (Hepatotoxicity [3]; Liver): Inactive
CC(C)c1ccc2oc3nc(N)c(C(=O)O)cc3c(=O)c2c1 [AMLEXANOX],Inactive,0,< 4,Inactive,0,< 4,0,0,Inactive,Inactive,0,< 4,Inactive,0,< 4,Inactive,0,< 4,–
CCOC(=O)C1=C(COCCN)NC(C)=C(C(=O)OC)C1c1ccccc1Cl (stereo unspecified) [AMLODIPINE],Inactive,0.7,>= 4,Inactive,0.8,>= 4,0,0,Inactive,Inactive,1.3,>= 4,Inactive,1.2,>= 4,Inactive,1,>= 4,–
Clc1ccc2c(c1)C(N1CCNCC1)=Nc1ccccc1O2 [AMOXAPINE],Inactive,0.7,< 4,Inactive,0,< 4,0,0,Inactive,Inactive,1,< 4,Inactive,0.7,< 4,Inactive,0.7,< 4,–
CC1(C)S[C@@H]2[C@H](NC(=O)[C@H](N)c3ccc(O)cc3)C(=O)N2[C@H]1C(=O)O [AMOXICILLIN],Inactive,0,< 4,Inactive,0,< 4,0,0,Inactive,Inactive,0.1,< 4,Inactive,0,< 4,Inactive,0,< 4,–
CC(C)(C#N)c1cc(Cn2cncn2)cc(C(C)(C)C#N)c1 [ANASTROZOLE],Inactive,6.4,< 4,Inactive,0,< 4,2,0,Active,Active,16.1,>= 4,Active,12.8,>= 4,Inactive,6.4,< 4,–
